# Assay results: ChEMBL document CHEMBL6153048, “Synthesis and pharmacological evaluation of natural product diphyllin derivatives against head and neck squamous cell carcinoma” (Eur J Med Chem, 2025)
# The source made the active and inactive calls. The rule behind the calls is not given here.
# What was measured:
# CAL-27 [1] = experiment: Inhibition of cell migration in human CAL-27 cells at 1 to 1000 nM incubated for 24 hrs by wound healing assay; format: functional, cell-based; conditions: dose 1-1000 nM
# CAL-27 [2] = experiment: Antiproliferative activity against human CAL-27 cells assessed as inhibition of cell communities at 10 uM treated for 11 days by plate clone formation assay; format: functional, cell-based; conditions: time 11.0 day
# ASPC1 = experiment: Cytotoxicity against human ASPC1 cells incubated for 72 hrs by MTT assay; format: functional, cell-based; conditions: ASPC1, 72 h
# [3] = AUC (0 to t) in ICR mouse at 1 mg/kg, iv measured upto 24 hrs by LC-MS/MS analysis; format: ADME, organism-based; conditions: in vivo
# [4] = Antiproliferative activity against human HN-6 cells assessed as inhibition rate at 0.1 uM incubated for 72 hrs by MTT assay relative to control; format: functional
# SCC-25 [5] = experiment: Antiproliferative activity against human SCC-25 cells assessed as inhibition rate at 0.1 uM incubated for 72 hrs by MTT assay relative to control; format: functional
# Homo sapiens [6] = species: Homo sapiens; experiment: Inhibition of V-ATPase activity in lysosome of human CAL-27 cells using Lyso-Tracker Red as fluorescent probe assessed as decrease in fluorescence intensity at 0.25 uM incubated for 24 hrs by flow cytometry analysis
# SCC-9 [7] = experiment: Cytotoxicity against human SCC-9 cells incubated for 72 hrs by MTT assay; format: functional, cell-based; conditions: SCC-9, 72 h
# [8] = Cmax in ICR mouse at 3 mg/kg, po measured upto 24 hrs by LC-MS/MS analysis; format: ADME, organism-based; conditions: in vivo
# [9] = AUC (0 to t) in ICR mouse at 3 mg/kg, po measured upto 24 hrs by LC-MS/MS analysis; format: ADME, organism-based; conditions: in vivo
# CAL-27 [10] = experiment: Induction of apoptosis in human CAL-27 cells assessed as necrotic cells at 1000 nM incubated for 72 hrs by Annexin V-FITC/propidium iodide staining based flow cytometry analysis (reference value: 0.03%); format: functional
# [11] = Cytotoxicity against human NCI-H322 cells incubated for 72 hrs by MTT assay; format: functional, cell-based; conditions: NCI-H322, 72 h
# CAL-27 [12] = experiment: Cytotoxicity against human CAL-27 cells incubated for 72 hrs by MTT assay; format: functional, cell-based; conditions: CAL-27, 72 h
# SCC-9 [13] = experiment: Antiproliferative activity against human SCC-9 cells assessed as inhibition rate at 0.1 uM incubated for 72 hrs by MTT assay relative to control; format: functional
# [14] = Antiproliferative activity against human WSU HN-30 cells assessed as inhibition rate at 0.1 uM incubated for 72 hrs by MTT assay relative to control; format: functional; conditions: WSU-HN30
# CAL-27 [15] = experiment: Induction of cell cycle arrest in human CAL-27 cells assessed as downregulation of CDK4 expression incubated for 24 hrs by Western blotting analysis; format: functional, cell-based; conditions: dose 1-1000 nM
# SCC-25 [16] = experiment: Cytotoxicity against human SCC-25 cells incubated for 72 hrs by MTT assay; format: functional, cell-based; conditions: SCC-25, 72 h
# CAL-27 [17] = experiment: Induction of cell cycle arrest in human CAL-27 cells assessed as downregulation of cyclin D1 expression incubated for 24 hrs by Western blotting analysis; format: functional, cell-based; conditions: dose 1-1000 nM
# MDA-MB-231 = experiment: Cytotoxicity against human MDA-MB-231 cells incubated for 72 hrs by MTT assay; format: functional, cell-based; conditions: MDA-MB-231, 72 h
# SK-BR-3 = experiment: Cytotoxicity against human SK-BR-3 cells incubated for 72 hrs by MTT assay; format: functional, cell-based; conditions: SK-BR-3, 72 h
# CAL-27 [18] = experiment: Induction of apoptosis in human CAL-27 cells assessed as necrotic cells at 100 nM incubated for 72 hrs by Annexin V-FITC/propidium iodide staining based flow cytometry analysis (reference value: 0.03%); format: functional
# KYSE-510 = experiment: Cytotoxicity against human KYSE-510 cells incubated for 72 hrs by MTT assay; format: functional, cell-based; conditions: KYSE-510, 72 h
# SNU-182 = experiment: Cytotoxicity against human SNU-182 cells incubated for 72 hrs by MTT assay; format: functional, cell-based; conditions: SNU-182, 72 h
# CAL-27 [19] = experiment: Induction of apoptosis in human CAL-27 cells assessed as necrotic cells at 1 nM incubated for 72 hrs by Annexin V-FITC/propidium iodide staining based flow cytometry analysis (reference value: 0.03%); format: functional
# [20] = Cytotoxicity against human L02 cells incubated for 72 hrs by MTT assay; format: toxicity, cell-based
# [21] = Cytotoxicity against human […] incubated for 72 hrs by MTT assay; format: functional, cell-based; conditions: WSU-HN30, 72 h
# SNU-449 = experiment: Cytotoxicity against human SNU-449 cells incubated for 72 hrs by MTT assay; format: functional, cell-based; conditions: SNU-449, 72 h
# CAL-27 [22] = experiment: Induction of apoptosis in human CAL-27 cells assessed as necrotic cells at 10 nM incubated for 72 hrs by Annexin V-FITC/propidium iodide staining based flow cytometry analysis (reference value: 0.03%); format: functional
# [23] = Oral bioavailability in ICR mouse at 3 mg/kg measured upto 24 hrs by LC-MS/MS analysis; format: ADME, organism-based; conditions: in vivo
# PANC-1 = experiment: Cytotoxicity against human PANC-1 cells incubated for 72 hrs by MTT assay; format: functional, cell-based; conditions: PANC-1, 72 h
# K562 = experiment: Cytotoxicity against human K562 cells incubated for 72 hrs by MTT assay; format: functional, cell-based; conditions: K562, 72 h
# HepG2 = experiment: Cytotoxicity against human HepG2 cells incubated for 72 hrs by MTT assay; format: functional, cell-based; conditions: HepG2, 72 h
# [24] = Plasma clearance in ICR mouse at 1 mg/kg, iv measured upto 24 hrs by LC-MS/MS analysis; format: ADME, organism-based
# Jurkat = experiment: Cytotoxicity against human Jurkat cells incubated for 72 hrs by MTT assay; format: functional, cell-based
# [25] = Half life in ICR mouse at 1 mg/kg, iv measured upto 24 hrs by LC-MS/MS analysis; format: ADME, organism-based; conditions: in vivo
# CAL-27 [26] = experiment: Antitumor activity against human CAL-27 cells xenografted in BALB/c mouse model assessed as tumor volume change at 0.6 mg/kg, iv treated four times a week for 30 days; format: functional; conditions: CAL-27, 720 h, time 30 day, read-out: TGI
# [27] = Cytotoxicity against human HN-6 cells incubated for 72 hrs by MTT assay; format: functional, cell-based; conditions: HN-6, 72 h
# CAL-27 [28] = experiment: Induction of apoptosis in human CAL-27 cells assessed as early apoptotic cells at 10 nM incubated for 72 hrs by Annexin V-FITC/propidium iodide staining based flow cytometry analysis (reference value: 9.16%); format: functional
# CAL-27 [29] = experiment: Antitumor activity against human CAL-27 cells xenografted in BALB/c mouse model assessed as reduction in tumor weight at 0.6 mg/kg, iv treated four times a week for 30 days; format: functional; design: scale not given: the % may be the effect or the level left; conditions: time 30 day
# [30] = Antiproliferative activity against human L02 cells assessed as inhibition rate at 0.1 uM incubated for 72 hrs by MTT assay relative to control; format: toxicity, cell-based
# CAL-27 [31] = experiment: Antiproliferative activity against human CAL-27 cells assessed as inhibition rate at 0.1 uM incubated for 72 hrs by MTT assay relative to control; format: functional
# Homo sapiens [32] = species: Homo sapiens; experiment: Inhibition of V-ATPase activity in lysosome of human CAL-27 cells using Lyso-Tracker Red as fluorescent probe assessed as decrease in fluorescence intensity at 0.5 uM incubated for 24 hrs by flow cytometry analysis
# [33] = Cmax in ICR mouse at 1 mg/kg, iv measured upto 24 hrs by LC-MS/MS analysis; format: ADME, organism-based; conditions: in vivo
compound,measurement,setting,value
COc1cc2c(O)c3c(c(-c4ccc5c(c4)OCO5)c2cc1OC)C(=O)OC3 [DIPHYLLIN],inhibition,CAL-27 [1],Active
same,Activity,CAL-27 [2],Active
same,IC50,ASPC1,> 10 µM
same,AUC(0-t) at 24 h,[3],0.0436 µg·h/mL
same,inhibition at 0.1 µM,[4],30.8%
same,inhibition at 0.1 µM,SCC-25 [5],23.3%
same,Activity,Homo sapiens [6],inactive
same,IC50,SCC-9 [7],1.35 µM
same,Cmax,[8],0.0119 µg/mL
same,AUC(0-t) at 24 h,[9],0.00356 µg·h/mL
same,Activity,CAL-27 [10],0.09%
same,IC50,[11],> 10 µM
same,IC50,CAL-27 [12],2 µM
same,inhibition at 0.1 µM,SCC-9 [13],16.6%
same,inhibition at 0.1 µM,[14],9.52%
same,Activity,CAL-27 [15],Dose-dependent-effect
same,IC50,SCC-25 [16],2.39 µM
same,Activity,CAL-27 [17],Dose-dependent-effect
same,IC50,MDA-MB-231,> 10 µM
same,IC50,SK-BR-3,> 10 µM
same,Activity,CAL-27 [18],0.08%
same,IC50,KYSE-510,2.04 µM
same,IC50,SNU-182,> 10 µM
same,Activity,CAL-27 [19],0.14%
same,IC50 at 72 h,[20],> 10 µM
same,IC50,[21],1.37 µM
same,IC50,SNU-449,> 10 µM
same,Activity,CAL-27 [22],0.07%
same,bioavailability,[23],2.7%
same,IC50,PANC-1,> 10 µM
same,IC50,K562,0.343 µM
same,IC50,HepG2,> 10 µM
same,clearance,[24],24.5 L/h/kg
same,IC50,Jurkat,1.66 µM
same,half-life,[25],6.48 min
same,inhibition in vivo at 0.6 mg/kg,CAL-27 [26],42.2%
same,IC50,[27],2.21 µM
same,Activity,CAL-27 [28],3.78%
same,Activity,CAL-27 [29],33.3%
same,"inhibition at 72 h, 0.1 µM",[30],7.61%
same,inhibition at 0.1 µM,CAL-27 [31],13.7%
same,Activity,Homo sapiens [32],inactive
same,Cmax,[33],0.16 µg/mL
